According to PMC10046961, “High-Throughput Screening Assay for Detecting Drug-Induced Changes in Synchronized Neuronal Oscillations and Potential Seizure Risk Based on Ca^2+ Fluorescence Measurements in Human Induced Pluripotent Stem Cell (hiPSC)-Derived Neuronal 2D and 3D Cultures” (Cells, 2023):
Like-named read-outs stand apart in the source and are kept apart here. Marks after values point to notes of the source that are not given here.

Experiments:
[1] = tested on: hiPSC-derived neurons co-cultured with human primary astrocytes in 2D; experiment: Ca2+ transient oscillation assay (FDSS), 2D co-culture; format: cell-based; conditions: for activation at 0.11 µM / activation at 0.33 µM / activation at 1 µM / activation at 3 µM / activation at 11.11 µM / activation at 33.33 µM / activation at 100 µM / activation at 300 µM: Homo sapiens, 1 h, 60 min
Procedure, shortened: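 Cultures were 10,000 CW50065 hiPSC excitatory neurons plus 2500 primary human astrocytes per well. Recordings used Cal-520 dye in HBSS/HEPES/glucose at 37 °C, with a 470/540 nm read at 2 Hz. Oscillations were stabilized with 0.04% DMSO, read for 20 min, then read again 60 min after compound addition (final DMSO 0.1%).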

[2] = tested on: hiPSC-derived neurons co-cultured with human primary astrocytes in 3D; experiment: Ca2+ transient oscillation assay (FDSS), 3D spheroids; format: cell-based; conditions: 60 min
Procedure, shortened: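 Fura-2 fluorescence was read twice for 20 min each: a baseline 10 min after 0.04% DMSO, and again 60 min after compound addition at nominal final concentration. The 3D co-cultures (1:1 hiPSC neurons from a donor and human astrocytes, 8000 each) matured 5 weeks in BrainPhys medium after a 1-week differentiation.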

[3] = ref PharmaPendium, cited from earlier work
[4] = read-out: Area under the curve - 2D Mean
[5] = read-out: Peak amplitude - 2D Mean
[6] = read-out: Peak-to-peak interval - 2D Mean
[7] = Table 1, peak plasma concentration in men, free therapeutic Cmax

CC1(C)S[C@@H]2[C@H](NC(=O)[C@H](N)c3ccc(O)cc3)C(=O)N2[C@H]1C(=O)O [Amoxicillin]
activation at 0.11 µM [1, 4]: 38.3%
activation at 0.11 µM ([1]; read-out: Peak Number—2D Mean): -10.5%
activation at 0.11 µM [1, 5]: 19.3%
activation at 0.11 µM ([1]; read-out: Peak width - 2D Mean): 22.3%
activation at 0.11 µM [1, 6]: 27.3%
activation at 0.33 µM [1, 4]: 23.7%
activation at 0.33 µM ([1]; read-out: Peak Number—2D Mean): 8.3%
activation at 0.33 µM [1, 5]: 5%
activation at 0.33 µM ([1]; read-out: Peak width - 2D Mean): 25.7%
activation at 0.33 µM [1, 6]: 9.3%
activation at 1 µM [1, 4]: 45.8%
activation at 1 µM ([1]; read-out: Peak Number—2D Mean): 27.2%
activation at 1 µM [1, 5]: 8.3%
activation at 1 µM ([1]; read-out: Peak width - 2D Mean): 48%
activation at 1 µM [1, 6]: -16%
activation at 3 µM [1, 4]: 43%
activation at 3 µM ([1]; read-out: Peak Number—2D Mean): 16.2%
activation at 3 µM [1, 5]: 7.5%
activation at 3 µM ([1]; read-out: Peak width - 2D Mean): 47.7%
activation at 3 µM [1, 6]: -7.8%
Area under the curve - 3D Mean ([2]; 0.11 µM): 147.7 % change from baseline
Peak Number—3D Mean ([2]; 0.11 µM): −8.0 % change from baseline
Peak amplitude - 3D Mean ([2]; 0.11 µM): 136.9 % change from baseline
Peak width - 3D Mean ([2]; 0.11 µM): 4.7 % change from baseline
Peak-to-peak interval - 3D Mean ([2]; 0.11 µM): 12.1 % change from baseline
Area under the curve - 3D Mean ([2]; 0.33 µM): 145.7 % change from baseline
Peak Number—3D Mean ([2]; 0.33 µM): 1.4 % change from baseline
Peak amplitude - 3D Mean ([2]; 0.33 µM): 132.0 % change from baseline
Peak width - 3D Mean ([2]; 0.33 µM): 5.5 % change from baseline
Peak-to-peak interval - 3D Mean ([2]; 0.33 µM): 9.0 % change from baseline
Area under the curve - 3D Mean ([2]; 1 µM): 122.0 % change from baseline
Peak Number—3D Mean ([2]; 1 µM): 9.3 % change from baseline
Peak amplitude - 3D Mean ([2]; 1 µM): 130.1 % change from baseline
Peak width - 3D Mean ([2]; 1 µM): −4.5 % change from baseline
Peak-to-peak interval - 3D Mean ([2]; 1 µM): −5.5 % change from baseline
Area under the curve - 3D Mean ([2]; 3 µM): 125.7 % change from baseline
Peak Number—3D Mean ([2]; 3 µM): 18.3 % change from baseline
Peak amplitude - 3D Mean ([2]; 3 µM): 123.5 % change from baseline
Peak width - 3D Mean ([2]; 3 µM): 1.2 % change from baseline
Peak-to-peak interval - 3D Mean ([2]; 3 µM): −1.2 % change from baseline
Free Cmax [3, 7]: 3 to 32000 nM

CC(=O)OCC[N+](C)(C)C [Acetylcholine]
effect on peak number / Ca2+ neuronal oscillations, in words ([1]; 2D format): significantly reduced peak number
activation at 11.11 µM [1, 4]: 38.3%
activation at 11.11 µM ([1]; read-out: Peak Number—2D Mean): 2.4%
activation at 11.11 µM [1, 5]: 11.4%
activation at 11.11 µM ([1]; read-out: Peak width - 2D Mean): 26.2%
activation at 11.11 µM [1, 6]: 28%
activation at 33.33 µM [1, 4]: 19.9%
activation at 33.33 µM ([1]; read-out: Peak Number—2D Mean): -31.5%
activation at 33.33 µM [1, 5]: 2.3%
activation at 33.33 µM ([1]; read-out: Peak width - 2D Mean): 16.2%
activation at 33.33 µM [1, 6]: -25.8%
activation at 100 µM [1, 4]: -1.3%
activation at 100 µM ([1]; read-out: Peak Number—2D Mean): -47.2%
activation at 100 µM [1, 5]: -17%
activation at 100 µM ([1]; read-out: Peak width - 2D Mean): -3.8%
activation at 100 µM [1, 6]: 11.3%
activation at 300 µM [1, 4]: -6.1%
activation at 300 µM ([1]; read-out: Peak Number—2D Mean): -63.5%
activation at 300 µM [1, 5]: -12.8%
activation at 300 µM ([1]; read-out: Peak width - 2D Mean): 2.6%
activation at 300 µM [1, 6]: 45.5%
Area under the curve - 3D Mean ([2]; 11.11 µM): 109.9 % change from baseline
Peak Number—3D Mean ([2]; 11.11 µM): −33.8 % change from baseline
Peak amplitude - 3D Mean ([2]; 11.11 µM): 90.9 % change from baseline
Peak width - 3D Mean ([2]; 11.11 µM): 4.2 % change from baseline
Peak-to-peak interval - 3D Mean ([2]; 11.11 µM): 89.6 % change from baseline
Area under the curve - 3D Mean ([2]; 33.33 µM): 110.9 % change from baseline
Peak Number—3D Mean ([2]; 33.33 µM): −51.6 * % change from baseline
Peak amplitude - 3D Mean ([2]; 33.33 µM): 105.2 % change from baseline
Peak width - 3D Mean ([2]; 33.33 µM): 0.4 % change from baseline
Peak-to-peak interval - 3D Mean ([2]; 33.33 µM): 38.9 % change from baseline
Area under the curve - 3D Mean ([2]; 100 µM): 97.3 % change from baseline
Peak Number—3D Mean ([2]; 100 µM): −34.9 % change from baseline
Peak amplitude - 3D Mean ([2]; 100 µM): 88.6 % change from baseline
Peak width - 3D Mean ([2]; 100 µM): 0.0 % change from baseline
Peak-to-peak interval - 3D Mean ([2]; 100 µM): −5.5 % change from baseline
Area under the curve - 3D Mean ([2]; 300 µM): 72.7 % change from baseline
Peak Number—3D Mean ([2]; 300 µM): −68.3 ** % change from baseline
Peak amplitude - 3D Mean ([2]; 300 µM): 56.5 % change from baseline
Peak width - 3D Mean ([2]; 300 µM): −12.2 % change from baseline
Peak-to-peak interval - 3D Mean ([2]; 300 µM): 75.9 % change from baseline
Free Cmax [3, 7]: 1000 to 10000 nM
Free Cmax ([3]; Table 2, highest plasma concentration in humans after the therapeutic dose): 1000 to 10000 nM
